From article PMC8620494, “Synthesis of Purine-Based Ionic Liquids and Their Applications” (Molecules, 2021)
Where two headings read alike, the source gives them in different places.

What was measured:
[1] = cited from earlier work
[2] = TGA, nitrogen, 2 K·min^−1, peak of the derivative
Experimental: The melting temperatures (Tm) were measured in a differential scanning calorimetry (DSC), using a Hitachi DSC7000X equipment at atmospheric pressure, with hermetically sealed aluminum crucibles and a constant flow of nitrogen. […] Each sample underwent three cycles of cooling and heating, at 5 K∙min^−1 and 2 K∙min^−1, respectively. The melting point of each compound was taken as the peak temperature. The determined melting points are estimated to have a 1 K uncertainty. […] Each sample was heated in an aluminia pan, under a nitrogen atmosphere, with a heating rate of 2 K·min^−1. The degradation temperature-associated uncertainty is estimated to be 0.01 K. Degradation temperature was taken as the peak temperature of the derivative.

Raphidocelis subcapitata = details: for EC50: 96 h incubation, microalgae yield, 95% confidence limits in parenthesis; for Acute hazard category according to European legislation: based on 96 h EC50 in mg∙L^−1
Experimental: The microalgae ecotoxicity assays were conducted, as previously described in detail, using the microalgae Raphidocelis subcapitata, i.e., following the guidelines of OECD [38], and adapted to the use of 24-well microplates. […] The microalgae were exposed to a range of concentrations of each salt, and all the assays, including the MBL blank control, were conducted in triplicate. The microplates were incubated for 96 h, under controlled incubation conditions, as used for the inoculum. After that time, the microalgae yield in each treatment was calculated as the difference between the cell densities at the end and beginning of the test.

[3] = for Molar water-solubility (S): pure water, 72 h, shake-flask; for Molar water-solubility (S) / pH saturated (pH of the saturated IL solution): (298 ± 1) K; for pH saturated (pH of the saturated IL solution): saturated aqueous solution; for Aqueous solubility enhancement (S/S0) of the salt relative to its free purine: S molar water-solubility of salt at 298 K, S0 of free purine from PubChem
Experimental: IL solubility studies were performed using the isothermal shake-flask method, as reported in the literature. […] If needed, samples were centrifuged for 2 min at 12,000 rpm. Samples of the liquid phase were collected and diluted in distilled water, followed by the preparation of a calibration curve for each compound of interest. The amount of compound in the liquid phase was quantified using a UV–Vis Synergy HT microplate reader from BioTek (Winooski, VT, USA). […] All assays were performed in triplicate. The pH (±0.02) of the samples was determined by using a Mettler Toledo SevenMultiTMdual pH meter.

[4] = Experimental: Samples were quantified, as previously described, at 316 nm (see Figure S1). All assays were performed in triplicates. To verify the integrity of the IL, the liquid phase was analyzed by ^1H and ^13C NMR.
[5] = remark: listed apart in the source
Text: Theobromine has relatively strong intermolecular hydrogen bonding between its carbonyl groups and strong π–π stacking interactions. In theophylline, the hydrogen between the two carbonyl groups is replaced by a methyl group, causing the previously mentioned interactions to be weaker. […] Adding alkyl groups to ILs usually lowers their solubility. […] The overall poor solubility of purines is connected to their inter-base hydrogen bonding. The insertion of the methyl groups replaces protons that would otherwise be available to form inter-base hydrogen bonds.

[6] = IL solution 0.05 mol∙L-1 before addition of ferulic acid
[7] = IL solution 0.05 mol∙L-1 saturated with ferulic acid
[8] = IL solution 0.1 mol∙L-1 before addition of ferulic acid
[9] = IL solution 0.1 mol∙L-1 saturated with ferulic acid
[10] = IL solution 0.25 mol∙L-1 before addition of ferulic acid
[11] = IL solution 0.25 mol∙L-1 saturated with ferulic acid
[12] = IL solution 0.5 mol∙L-1 before addition of ferulic acid
[13] = IL solution 0.5 mol∙L-1 saturated with ferulic acid
[14] = IL solution 1.0 mol∙L-1 before addition of ferulic acid
[15] = IL solution 1.0 mol∙L-1 saturated with ferulic acid
[16] = IL solution 1.5 mol∙L-1 before addition of ferulic acid
[17] = IL solution 1.5 mol∙L-1 saturated with ferulic acid

Structure (SMILES) | Decomposition temperature (Td) [2] [K] | Molar water-solubility (S) [3] [mol/L] | pH saturated (pH of the saturated IL solution) [3] | Initial solution pH [4, 6] | Saturated solution pH [4, 7] | Initial solution pH [4, 8] | Saturated solution pH [4, 9] | Initial solution pH [4, 10] | Saturated solution pH [4, 11] | Initial solution pH [4, 12] | Saturated solution pH [4, 13] | other results
O=c1[nH]c(=O)c2[nH]c(=O)[nH]c2[nH]1 [uric acid] | – | – | – | – | – | – | – | – | – | – | – | Molar water-solubility of the free purine (S0) ([1]; (293 ± 1) K, ref PubChem [53]): 357 µM
CCCC[N+](CCCC)(CCCC)CCCC.O=c1[n-]c2[nH]c(=O)[nH]c2c(=O)[nH]1 [[N4444][Ur], Tetrabutylammonium urate] | 505 ± 1 | 0.096 ± 0.007 | 8.31 | – | – | – | – | – | – | – | – | EC50 (Raphidocelis subcapitata): 2.7 mg/L
CCCC[N+](CCCC)(CCCC)CCCC.[Cl-] [[N4444]Cl, tetrabutylammonium chloride, reference compound] | – | – | – | 5.71 | 3.29 | 6.31 | 2.89 | 5.62 | 2.63 | 4.26 | 2.36 | Initial solution pH [4, 14]: 4.04; Saturated solution pH [4, 15]: 2.10; Initial solution pH [4, 16]: 4.20; Saturated solution pH [4, 17]: 2.26; Acute hazard category according to European legislation (Raphidocelis subcapitata): acute 2 (acute 2 category (1 < EC50 < 10 mg∙L^−1)); pH initial ([5]; initial aqueous solution of [N4444]Cl 1.0 mol∙L-1): 4.23
Cn1c(=O)c2[n-]cnc2n(C)c1=O.[Na+] [sodium theophyllinate] | – | – | – | – | – | – | – | – | – | – | – | Molar solubility of sodium theophyllinate in pure water (S0) [5]: 0.26 ± 0.01 mol/L; pH saturated ([5]; [N4444]Cl 1.0 mol∙L-1 solution saturated with sodium theophyllinate): 10.55
CCCC[N+](CCCC)(CCCC)CCCC.Cn1c(=O)c2[n-]cnc2n(C)c1=O [[N4444][Theop], Tetrabutylammonium theophyllinate] | 486 ± 1 | 2.2 ± 0.1 | 10.89 | 8.91 | 5.30 | 10.52 | 6.44 | 10.81 | 6.56 | 10.78 | 7.65 | Initial solution pH [4, 14]: 11.06; Saturated solution pH [4, 15]: 8.63; Initial solution pH [4, 16]: 10.68; Saturated solution pH [4, 17]: 9.95; Aqueous solubility enhancement (S/S0) of the salt relative to its free purine [3]: 53 fold
CCCC[N+](CCCC)(CCCC)CCCC.Cn1cnc2c1c(=O)[n-]c(=O)n2C [[N4444][Theob], Tetrabutylammonium theobrominate] | 457 ± 1 | 1.59 ± 0.07 | 12.76 | 10.85 | 5.36 | 11.56 | 5.54 | 11.80 | 8.51 | 11.98 | 9.62 | S/S0 of ferulic acid recalculated with S0 at a similar pH to that of the sample ([4]; all tested IL concentrations, 303 K): < 1; Aqueous solubility enhancement (S/S0) of the salt relative to its free purine [3]: 870 fold
O=c1[nH]c(=O)c2[nH]c([O-])nc2[nH]1.[Na+] [sodium urate] | – | – | – | – | – | – | – | – | – | – | – | Water-solubility of other urate salts [1]: 6.76 mM
CCCC[N+](CCCC)(CCCC)CCCC.O=c1[nH]c(=O)c2[n-]cnc2[nH]1 [[N4444][Xan], Tetrabutylammonium xanthinate] | 495 ± 1 | 0.17 ± 0.01 | 10.14 | – | – | – | – | – | – | – | – | EC50 (Raphidocelis subcapitata): 0.8 mg/L; Acute hazard category according to European legislation (Raphidocelis subcapitata): acute 1 (acute 1 category (EC50 < 1 mg∙L^−1))
O.O=c1[nH]c2nc([O-])nc([O-])c2[nH]1.[K+].[K+] [potassium urate] | – | – | – | – | – | – | – | – | – | – | – | Water-solubility of other urate salts [1]: 12.06 mM
